Laboratory results taken from US20100267653A1, “USE OF COUMARIN DERIVATIVES IN ANTIFUNGAL THERAPY” (priority 2006, published 2010).
Converted amounts (≈) assume the structure as drawn. Where two headings read alike, the source gives them in different places.

Tests used:
[1] = Solubility of coumarins in RPMI 1640 media and DMSO; assay type: physicochemical; settings: for solubility: aqueous buffer, kinetic from dmso stock, pH = 7.0, in presence of the DMSO concentration of the same table line
Method: The solubility of the aglycones was compared to the respective glycoside in RPMI 1640 media and in DMSO.
(§1) Solubilisation of other compounds required the presence of DMSO. Esculetin, daphnetin, 4-(trifluoromethyl) coumarin, 4-(trifluoromethyl)-coumarin-7-0-glucose and cichoriin were dissolved in DMSO at 1000× final test concentration; when this solution was diluted to the concentration used in the experiments using 2× strength RPMI 1640 medium, the final concentration of DMSO was […] which alone had no effect on the fungi when tested in several experiments performed. Fraxetin required a final concentration of 0.2% DMSO, but this too had no effect on the growth of the fungi when tested in separate experiments.

[2] = tested on: Trichophyton rubrum NCPF118; test: Antifungal activity, growth in RPMI 1640 microtitre plates (OD 530 nm); assay type: cell-based; settings: for MIC: T. rubrum NCPF118, 30° C.
Method: (§2) Esculin, esculetin and a range of other coumarins and their glycosides were tested for their antifungal activity against Trichophyton rubrum, Trichophyton interdigitale and other fungi isolated from nails and skin.
(§3) Suspensions of fungal conidia and hyphal fragments for use as experimental inocula were prepared by adding 3 ml of demineralised water or 0.15% (w/v) NaCl solution to a slope culture which had been incubated at 30° C. for 7 to 10 days and probing the surface of the culture with a sterile plastic transfer pipette. […] The resulting suspension was filtered through a double layer of sterile surgical gauze; if necessary a further volume of up to 3 ml of water or 0.15% (w/v) NaCl was used to wash through any spores or small hyphal fragments held on the gauze. 100 μl of this suspension, adjusted to an optical density between 0.14 and 0.16 at 530 nm (corresponding to between 0.5 and 1.5×10^6 propagules/ml) was added to the wells in sterile 96-well microtitre plates to which 100 μl of 2× strength RPMI 1640 media (a chemically-defined nutrient medium widely used in tissue culture and antimicrobial resistance testing) had been added. Inocula prepared in this way were used in all of the experiments; additionally, for some experiments with esculin shown in FIG. 4, the results obtained with standard inocula prepared as described above (labelled “young inoculum” in FIG. 4), were compared with the results obtained in similar tests using inocula which had been cultured for up to 9 weeks (labelled “old inoculum” in FIG. 4). As appropriate, coumarins were pre-dissolved in 2× strength RPMI 1640 medium before addition to the plate. Experiments with the yeasts Candida albicans and Candida krusei were set up in the same way, but in these cases, filtration of the cell suspensions was not necessary.
as §1
(§4) A series of dilutions of the coumarin solutions was prepared on the plates by mixing known volumes of the coumarin stock solutions in the wells with fresh volumes of 2×RPMI 1640 medium. Each concentration of coumarin was studied in triplicate wells. For observations on Trichophyton rubrum NCPF118 and Trichophyton interdigitale NCPF335, obtained from the National Collection of Pathogenic Fungi (Bristol), the plates were incubated in a Bio-Tek Powerwave XS scanning plate reader at 30° C., and fungal growth within the plates was measured at intervals of 2 h for up to 72 h or 96 h as specified in the text by recording the absorbance (optical density) of the wells at 530 nm. Observations on Candida albicans and Candida krusei were made in the same way, but the incubation temperature was 37° C. and the incubation time was 48 h. For observations with clinical fungal isolates obtained from the collection of M. Monod (Lausanne, Switzerland), the procedure was as described above except that in response to the relatively slow growth of these isolates, incubations were performed in a static incubator at 30° C. and the plates were read manually in a Bio-Tek Powerwave XS scanning plate reader at intervals of 24 h for up to 168 h, being returned to the incubator after each reading. Malassezia furfur grows poorly in the system described above, so for this organism, a standard inoculum of M. furfur was mixed with an equal volume of a solution of esculetin and the mixture was plated onto Petri dishes containing Sabouraud's agar medium. […]

T. rubrum strain 1072 = test: Sensitivity of clinical isolates of dermatophytes to esculetin; assay type: cell-based, Trichophyton rubrum; design: key to Sensitive (S) or Resistant (R): Sensitive (S); Resistant (R); settings: T. rubrum strain 1072, 3 tested
Method: as §2
(§5) Suspensions of fungal conidia and hyphal fragments for use as experimental inocula were prepared by adding 3 ml of demineralised water or 0.15% (w/v) NaCl solution to a slope culture which had been incubated at 30° C. for 7 to 10 days and probing the surface of the culture with a sterile plastic transfer pipette. […] The resulting suspension was filtered through a double layer of sterile surgical gauze; if necessary a further volume of up to 3 ml of water or 0.15% (w/v) NaCl was used to wash through any spores or small hyphal fragments held on the gauze. […]
(§6) A series of dilutions of the coumarin solutions was prepared on the plates by mixing known volumes of the coumarin stock solutions in the wells with fresh volumes of 2×RPMI 1640 medium. […] For observations on Trichophyton rubrum NCPF118 and Trichophyton interdigitale NCPF335, obtained from the National Collection of Pathogenic Fungi (Bristol), the plates were incubated in a Bio-Tek Powerwave XS scanning plate reader at 30° C., and fungal growth within the plates was measured at intervals of 2 h for up to 72 h or 96 h as specified in the text by recording the absorbance (optical density) of the wells at 530 nm. […]

Trichophyton rubrum = test: as above; assay type: cell-based; design: key to Sensitive (S) or Resistant (R): Sensitive (S); Resistant (R); settings: 48 strains tested
Method: as §2
(§7) Suspensions of fungal conidia and hyphal fragments for use as experimental inocula were prepared by adding 3 ml of demineralised water or 0.15% (w/v) NaCl solution to a slope culture which had been incubated at 30° C. for 7 to 10 days and probing the surface of the culture with a sterile plastic transfer pipette. […] The resulting suspension was filtered through a double layer of sterile surgical gauze; if necessary a further volume of up to 3 ml of water or 0.15% (w/v) NaCl was used to wash through any spores or small hyphal fragments held on the gauze. 100 μl of this suspension, adjusted to an optical density between 0.14 and 0.16 at 530 nm (corresponding to between 0.5 and 1.5×10^6 propagules/ml) was added to the wells in sterile 96-well microtitre plates to which 100 μl of 2× strength RPMI 1640 media (a chemically-defined nutrient medium widely used in tissue culture and antimicrobial resistance testing) had been added. Inocula prepared in this way were used in all of the experiments; additionally, for some experiments with esculin shown in FIG. 4, the results obtained with standard inocula prepared as described above (labelled “young inoculum” in FIG. 4), were compared with the results obtained in similar tests using inocula which had been cultured for up to 9 weeks (labelled “old inoculum” in FIG. 4). As appropriate, coumarins were pre-dissolved in 2× strength RPMI 1640 medium before addition to the plate. […]
as §4, with “Each concentration of coumarin was studied in triplicate wells.” left out, “Observations on Candida albicans and Candida krusei were made in the same way, but the incubation temperature was 37° C. and the incubation time was 48 h.” left out, “reading.” for “reading. Malassezia furfur grows poorly in the system described above, so for this organism, a standard inoculum of M. furfur was mixed with an equal volume of a solution of esculetin and the mixture was plated onto Petri dishes containing Sabouraud's agar medium.”

Microsporum canis = test: as above; assay type: cell-based; design: key to Sensitive (S) or Resistant (R): Sensitive (S); Resistant (R); settings: 4 strains tested
Method: as §2, §7
as §4, with “Each concentration of coumarin was studied in triplicate wells.” left out, “Observations on Candida albicans and Candida krusei were made in the same way, but the incubation temperature was 37° C. and the incubation time was 48 h.” left out, “reading.” for “reading. Malassezia furfur grows poorly in the system described above, so for this organism, a standard inoculum of M. furfur was mixed with an equal volume of a solution of esculetin and the mixture was plated onto Petri dishes containing Sabouraud's agar medium.”

[3] = tested on: T. mentagrophytes var interdigitale strain 386; test: as above; assay type: cell-based, Trichophyton mentagrophytes var. interdigitale; design: key to Sensitive (S) or Resistant (R): Sensitive (S); Resistant (R); settings: strain 386, 1 strain tested
Method: as §2, §5, §6

Curvularia spp. = test: Sensitivity of other fungal isolates of pathogenic fungi to esculetin; assay type: cell-based; design: key to Sensitive (S) or Resistant (R): Sensitive (S); Resistant (R); settings: 1 strain tested
Method: as §2, §3, §1, §4

Fusarium spp. = test: as above; assay type: cell-based; design: key to Sensitive (S) or Resistant (R): Sensitive (S); Resistant (R); settings: 15 strains tested
Method: as §2, §3, §1, §4

Aspergillus fumigatus = test: as above; assay type: cell-based; design: key to Sensitive (S) or Resistant (R): Sensitive (S); Resistant (R); settings: 1 strain tested
Method: as §2, §3, §1, §4

[4] = tested on: Scopulariopsis brevicaulis; test: as above; assay type: cell-based; design: key to Sensitive (S) or Resistant (R): Sensitive (S); Resistant (R); settings: 4 strains tested
Method: as §2, §3, §1, §4

Alternaria spp. = test: as above; assay type: cell-based; design: key to Sensitive (S) or Resistant (R): Sensitive (S); Resistant (R); settings: 1 strain tested
Method: as §2, §3, §1, §4

T. soudanense = test: Sensitivity of clinical isolates of dermatophytes to esculetin; assay type: cell-based, Trichophyton soudanense; design: key to Sensitive (S) or Resistant (R): Sensitive (S); Resistant (R); settings: 2 strains tested
Method: as §2, §5, §6

[5] = tested on: Candida albicans, Cryptococcus neoformans, Saccharomyces cerevisiae and Aspergillus niger; settings: Sardari et al, Bioorg. Med. Chem. 7, 1999; cited from earlier work
T. mentagrophytes = test: Sensitivity of clinical isolates of dermatophytes to esculetin; assay type: cell-based, Trichophyton mentagrophytes; design: key to Sensitive (S) or Resistant (R): Sensitive (S); Resistant (R); settings: 27 strains tested
Method: as §2, §5, §6

T. tonsurans = test: as above; assay type: cell-based, Trichophyton tonsurans; design: key to Sensitive (S) or Resistant (R): Sensitive (S); Resistant (R); settings: 2 strains tested
Method: as §2, §5, §6

M. gypseum = test: as above; assay type: cell-based, Microsporum gypseum; design: key to Sensitive (S) or Resistant (R): Sensitive (S); Resistant (R); settings: clinical isolate, 1 strain tested
Method: as §2, §5, §6

[6] = tested on: Trichophyton interdigitale NCPF335; test: Antifungal activity, growth in RPMI 1640 microtitre plates (OD 530 nm); assay type: cell-based
Method: as §2, §3, §1, §4

[7] = DMSO present for the stated solubility in RPMI 1640
[8] = RPMI 1640 medium with DMSO co-solvent
[9] = old inoculum (cultured up to 9 weeks) versus young inoculum, FIG. 4

O=c1cc(C(F)(F)F)c2ccc(O)cc2o1 [4-(trifluoromethyl)coumarin, 7-hydroxy-4-(trifluoromethyl)coumarin]
solubility (in words) [1]: only being soluble at low concentrations
DMSO Concentration [1, 7]: 0.2 % v/v
solubility [1, 8]: 2000 µM
MIC ([2]; Trichophyton rubrum, read-out: MIC): 1000 µM (≈ 230 µg/mL)
activity of halogenated coumarin aglycone versus T. rubrum NCPF118 ([2]; at concentrations of 1-2 mM, FIG. 6): significantly antifungal

O=c1ccc2cc(O)c(O)cc2o1 [Esculetin, 6,7 dihydroxycoumarin]
MIC esculetin, range in mM (T. rubrum strain 1072): ≧2 mM
Sensitive (S) or Resistant (R) (T. rubrum strain 1072): R
MIC esculetin, range in mM (Trichophyton rubrum): 0.54 ± 0.37 mM (≈ 96.2 µg/mL)
Sensitive (S) or Resistant (R) (Trichophyton rubrum): S
MIC esculetin, range in mM (Microsporum canis): 1.0 ± 0.58 mM (≈ 178 µg/mL)
Sensitive (S) or Resistant (R) (Microsporum canis): S
MIC esculetin, range in mM [3]: ≧2 mM
Sensitive (S) or Resistant (R) [3]: R
solubility [1, 8]: 5000 µM
DMSO Concentration ([1]; pH 7): 0.1 % v/v
Sensitive (S) or Resistant (R) (Curvularia spp.): R
MIC (Curvularia spp.; Curvularia): ≥ 2000 µM
Sensitive (S) or Resistant (R) (Fusarium spp.): R
MIC (Fusarium spp.; Fusarium): ≥ 2000 µM
Sensitive (S) or Resistant (R) (Aspergillus fumigatus): R
MIC (Aspergillus fumigatus; Aspergillus fumigatus): ≥ 2000 µM
Sensitive (S) or Resistant (R) [4]: R
MIC ([4]; Scopulariopsis brevicaulis): ≥ 2000 µM
Sensitive (S) or Resistant (R) (Alternaria spp.): S
MIC (Alternaria spp.; Alternaria): 1000 µM (≈ 178 µg/mL)
MIC esculetin, range in mM (T. soudanense): 0.31 ± 0.27 mM (≈ 55.2 µg/mL)
Sensitive (S) or Resistant (R) (T. soudanense): S
antifungal activity against the fungi tested [5]: minimal antifungal activity
MIC esculetin, range in mM (T. mentagrophytes): 1.1 ± 0.5 mM (≈ 196 µg/mL)
Sensitive (S) or Resistant (R) (T. mentagrophytes): S
MIC esculetin, range in mM (T. tonsurans): 0.25 ± 0.18 mM (≈ 44.5 µg/mL)
Sensitive (S) or Resistant (R) (T. tonsurans): S
antifungal effect versus T. rubrum NCPF118 ([2]; FIG. 3): dose-dependent antifungal effect
MIC esculetin, range in mM (M. gypseum): ≧2 mM
Sensitive (S) or Resistant (R) (M. gypseum): R

O=c1ccc2cc(OC3OC(CO)C(O)C(O)C3O)c(O)cc2o1 (centres unmarked) [Esculin, 6,7 dihydroxycoumarin-6-glucoside]
DMSO Concentration [1, 7]: 0 % v/v
solubility [1]: 20000 µM
solubility in 2×RPMI 1640 solution (in words) ([1]; without DMSO): dissolves readily
antifungal activity against the fungi tested [5]: minimal antifungal activity
effect on the growth of Trichophyton interdigitale NCPF335 ([6]; addition of β-glucosidase and esculin, FIG. 2): significantly inhibits fungal growth
sensitivity of older cultures of T. interdigitale NCPF335 [6, 9]: more sensitive
effect on the growth of Trichophyton rubrum NCPF118 ([2]; addition of β-glucosidase and esculin, FIG. 1): significantly inhibits fungal growth
sensitivity of older cultures of T. rubrum NCPF118 [2, 9]: more sensitive

Cc1cc(=O)oc2cc(O)c(O)cc12 [4 methyl esculetin]
MIC [2]: 1000 µM (≈ 192 µg/mL)
